From US20050288347A1, “Certain triazole-based compounds, compositions, and uses thereof” (priority 2004, published 2005)
“Also recorded” adds a separate entry of the source.

The compounds below were run against protein kinase (assay: HTS ATP-utilizing enzyme assay, off-chip mobility-shift format (Caliper HTS 250)). Conditions: kinase(s) for which the compound exhibits protein kinase inhibitory activity; test compound 10 μM; active = greater than three-sigma from the mean activity of inactive compounds.
Type: biochemical, human
Outline: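 Single-point screen at 10 μM compound in HEPES pH 7.5 buffer with Triton X-100 and BSA, 2.5 h at 20–22 °C. Substrate-to-phosphopeptide ratio measured by off-chip microfluidic mobility shift; EDTA wells as 100% and DMSO wells as 0% control, hits called at three-sigma limits.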

| SMILES | Kinase |
| --- | --- |
| Cc1nnc(SCC(=O)Nc2cccc(Cl)c2)n1C [N-(3-chlorophenyl)-2-(4,5-dimethyl-4H-1,2,4-triazol-3-ylthio)acetamide] | DAPK1 |
| Cn1c(S)nnc1-c1ccc(NC(=O)c2ccccc2)cc1 [N-(4-(5-mercapto-4-methyl-4H-1,2,4-triazol-3-yl)phenyl)benzamide] | GSK3-α; also recorded: CHEK2 |
| Cn1c(SCC(=O)OC2CCCCC2)nnc1-c1ccc([N+](=O)[O-])cc1 [cyclohexyl 2-(4-methyl-5-(4-nitrophenyl)-4H-1,2,4-triazol-3-ylthio)acetate] | PDGFRR-α and FYN and FLT-3 |
| CCOC(=O)CSc1nnc(-c2ccccc2OC)n1C [ethyl 2-(5-(2-methoxyphenyl)-4-methyl-4H-1,2,4-triazol-3-ylthio)acetate] | AURORA-A and FYN |
| CCOC(=O)CSc1nnc(-c2ccco2)n1-c1ccc(C)cc1 [ethyl 2-(5-(furan-2-yl)-4-p-tolyl-4H-1,2,4-triazol-3-ylthio)acetate] | PAK2 |
| CCOC(=O)CSc1nnc(-c2ccncc2)[nH]1 [ethyl 2-(5-(pyridin-4-yl)-4H-1,2,4-triazol-3-ylthio)acetate] | CDK2-cyclinA and AURORA-A and CDK5 |
| CCn1c(SCC(=O)OC)nnc1-c1ccc(O)cc1 [methyl 2-(4-ethyl-5-(4-hydroxyphenyl)-4H-1,2,4-triazol-3-ylthio)acetate] | GSK3-β; also recorded: GSK3-α; also recorded: CHEK1 |
| CCn1c(SCC(=O)OC)nnc1-c1ccc([N+](=O)[O-])cc1 [methyl 2-(4-ethyl-5-(4-nitrophenyl)-4H-1,2,4-triazol-3-ylthio)acetate] | PDGFRR-α and FYN |
| COC(=O)CSc1nnc(-c2ccncc2)[nH]1 [methyl 2-(5-(pyridin-4-yl)-4H-1,2,4-triazol-3-ylthio)acetate] | AURORA-A; also recorded: DYRK2; also recorded: GSK3-β |

Next, values leading:

| Kinase | SMILES |
| --- | --- |
| FYN | O=C(CSc1nncn1-c1cccnc1)Nc1ccccc1[N+](=O)[O-] [N-(2-nitrophenyl)-2-(4-(pyridin-3-yl)-4H-1,2,4-triazol-3-ylthio)acetamide] |
| CDK2-cyclinE | O=C(CSc1nnc(Cc2ccccc2)n1Cc1ccccc1)Nc1ccccc1-c1ccccc1 [N-(biphenyl-2-yl)-2-(4,5-dibenzyl-4H-1,2,4-triazol-3-ylthio)acetamide] |
| AURORA-A | C=CCNC(=O)CSc1nnc(-c2ccccc2O)n1-c1ccc(C)cc1 [N-allyl-2-(5-(2-hydroxyphenyl)-4-p-tolyl-4H-1,2,4-triazol-3-ylthio)acetamide] |
| MAPKAPK-2 and FYN | Cc1cccc(-c2nnc(SCC(=O)NCc3ccccc3)n2C)c1 [N-benzyl-2-(4-methyl-5-m-tolyl-4H-1,2,4-triazol-3-ylthio)acetamide] |
| AKT1 | COc1ccc(-c2nnc(SCC(=O)OCc3ccccc3)n2-c2ccc(OC)cc2)cc1 [benzyl 2-(4,5-bis(4-methoxyphenyl)-4H-1,2,4-triazol-3-ylthio)acetate] |
| CDK2-cyclinE | CC(C)Cn1c(SCC(=O)OCc2ccccc2)nnc1-c1ccccc1O [benzyl 2-(5-(2-hydroxyphenyl)-4-isobutyl-4H-1,2,4-triazol-3-ylthio)acetate] |
| PDK1 and HCK | O=C(CSc1nnc(CC2CCCCC2)n1-c1ccccc1)OCc1ccccc1 [benzyl 2-(5-(cyclohexylmethyl)-4-phenyl-4H-1,2,4-triazol-3-ylthio)acetate] |
| MAPKAPK-2; also recorded: CDK2-cyclinE | CCOC(=O)CSc1nnc(-c2ccc(OC)c(OC)c2)n1-c1ccccc1 [ethyl 2-(5-(3,4-dimethoxyphenyl)-4-phenyl-4H-1,2,4-triazol-3-ylthio)acetate] |
| MAPKAPK-2 | CCn1c(SCC(=O)OC)nnc1-c1ccccc1 [methyl 2-(4-ethyl-5-phenyl-4H-1,2,4-triazol-3-ylthio)acetate] |

Same assay, conditions: test compound 10 μM; active = activity greater than three-sigma from the mean of the predominately inactive population for that enzyme

| SMILES | protein kinase against which the compound exhibits inhibitory activity (Table 3) |
| --- | --- |
| CN(C)CCCSc1nnc(-c2cccs2)[nH]1 [N,N-dimethyl-3-(5-(thiophen-2-yl)-4H-1,2,4-triazol-3-ylthio)propan-1-amine] | c-TAK1; also recorded: AURORA-A; also recorded: GSK3-α |
| O=C(NCCSc1nnc(-c2cccs2)[nH]1)c1ccccc1 [N-(2-(5-(thiophen-2-yl)-4H-1,2,4-triazol-3-ylthio)ethyl)benzamide] | DYRK2; also recorded: GSK3-α; also recorded: GSK3-β |
| O=C(NCCSc1nnc(-c2ccccc2)[nH]1)c1ccccc1 [N-(2-(5-phenyl-4H-1,2,4-triazol-3-ylthio)ethyl)benzamide] | GSK3-β; also recorded: DYRK2; also recorded: AURORA-A |
| COc1ccccc1-n1c(SCCCC(=O)OCc2ccccc2)nnc1-c1ccccc1 [benzyl 4-(4-(2-methoxyphenyl)-5-phenyl-4H-1,2,4-triazol-3-ylthio)butanoate] | AURORA-A |
| CCOC(=O)CCSc1nnc(-c2cccc(C(F)(F)F)c2)[nH]1 [ethyl 3-(5-(3-(trifluoromethyl)phenyl)-4H-1,2,4-triazol-3-ylthio)propanoate] | AURORA-A; also recorded: FLT-3; also recorded: GSK3-β |
| CCOC(=O)CCSc1nnc(-c2cccnc2)[nH]1 [ethyl 3-(5-(pyridin-3-yl)-4H-1,2,4-triazol-3-ylthio)propanoate] | AURORA-A; also recorded: DYRK2 |
| CCOC(=O)c1ccc(CSc2nnc(-c3cccc(C)c3)[nH]2)o1 [ethyl 5-((5-m-tolyl-4H-1,2,4-triazol-3-ylthio)methyl)furan-2-carboxylate] | AURORA-A; also recorded: FLT-3; also recorded: CHEK2 |
| CCOC(=O)c1ccc(CSc2nnc(-c3ccccc3)[nH]2)o1 [ethyl 5-((5-phenyl-4H-1,2,4-triazol-3-ylthio)methyl)furan-2-carboxylate] | AURORA-A; also recorded: FLT-3; also recorded: GSK3-β |
| CCC(c1ccccc1)c1nnc(SCc2ccc(C(=O)OC)cc2)[nH]1 (stereo not drawn) [methyl 4-((5-(1-phenylpropyl)-4H-1,2,4-triazol-3-ylthio)methyl)benzoate] | FLT-3 |
| COC(=O)c1ccc(CSc2nnc(-c3cccs3)[nH]2)cc1 [methyl 4-((5-(thiophen-2-yl)-4H-1,2,4-triazol-3-ylthio)methyl)benzoate] | AURORA-A; also recorded: FLT-3; also recorded: c-TAK1 |
| COC(=O)c1ccc(CSc2nnc(-c3cccc(C)c3)[nH]2)cc1 [methyl 4-((5-m-tolyl-4H-1,2,4-triazol-3-ylthio)methyl)benzoate] | AURORA-A; also recorded: FLT-3; also recorded: c-TAK1 |
| COC(=O)c1ccc(CSc2nnc(C)[nH]2)cc1 [methyl 4-((5-methyl-4H-1,2,4-triazol-3-ylthio)methyl)benzoate] | DYRK2; also recorded: AURORA-A |
